From patent US4623656A, “Method for inhibiting monoamine oxidase-A and treating depression by administering 3-N-methyl-thioxanthen-9-one carboxamide 10,10-dioxide” (priority 1984, dated 1986)

Columns and labels:
[1] = system: tetrabenazine-induced sedation; assay: Prevention of tetrabenazine-induced sedation; type: in vivo, Charles River CD-1 male mice
Protocol: Charles River CD-1 male mice (18-22 gm) were pretreated orally with various doses of Compound I or the reference standard, phenelzine, 60 min, 3 hr, or 5 hr before injection of tetrabenazine (35 mg/kg i.p.). […] Thirty minutes after injection of tetrabenazine, each mouse was scored on an arbitrary scale from one to four according to Vernier et al., ([…] Syomp. on Psychosomatic Medicine, J. H. Nodin and J. H. Moyer Eds., Lea and Febiger, Philadelphia, 1962, pp 683-90) for both depression of exploratory behaviour and presence or absence of blepharoptosis. Ratings were converted to a percent of rating received by mice receiving […] prior to tetrabenazine administration.

MAO = assay: Time course of in vivo MAO inhibition after oral dosing (other experiments, tissue not stated); set-up: species or system rat; conditions: oral dose of 50 mg/Kg
Protocol: (§1) To determine MAO inhibition in brains and livers of rats pretreated with reversible inhibitors, it was necessary to use an assay procedure that minimized dilution of the inhibitor. Thus, high concentrations of brain tissue homogenates were incubated for very short incubation times. For brain assays, initial tissue was 3-fold diluted into each assay. Because of the very high MAO activity in liver homogenates, further dilution of tissue was necessary in order to obtain reliable data. In this case, three different homogenate concentrations were assayed, and precent inhibition was extrapolated to zero tissue dilution. Substrate concentrations were not saturating, but were chosen relative to Km values for serotonin and phenethylamine in order to give an estimate of MAO-A and B, respectively.
Brains from pretreated male Sprague-Dawley rats ([…]), were homogenized in a buffer consisting of 0.1M potassium phosphate and 5% sucrose (pH 7.4) at a 1:1 tissue wt/buffer volume ratio, using a motorized Teflon/glass homogenizer. MAO-A and B were determined by incubating 100 μl of tissue homogenate with 50 μl of a double-label substrate mixture to give final concentrations of [^3 H] serotonin, 0.4 mM (5 Ci/mol); and [^14 C] β-phenethylamine, 20 μM (3 Ci/mol). For blank assays 100 μl portions of homogenate were pre-incubated at 37° C. with pargyline (4 mM) before substrate addition. Incubations were at 37° C. for 30 sec. Assay mixtures were then acidified and products extracted as in the above in vitro method (White and Glassman). Liver tissue was homogenized in the above phosphate-sucrose buffer at a 1:5 tissue wt/buffer volume ratio. Portions (5, 10 and 50 μ l) of each homogenate were assayed with 50 μl of the above double-label substrate mixture in a total assay volume of 150 μl 0.067M potassium phosphate, pH 7.4. Blank assays included the same amounts of homogenate pre-incubated with 4 mM pargyline for 15 min at 37° C. After addition of substrates, mixtures were incubated at 37° C. for 20 sec, acidified, and products extracted as above. […]

MAO-B (brain) = assay: In vivo inhibition of brain MAO-B in orally pretreated rats; set-up: species or system rat; conditions: 12.5-50 mg/kg p.o., 3 hr after oral dosing
Protocol: as §1
(§2) Brains from pretreated male Sprague-Dawley rats (sacrificed 3 hours after oral dosing), were homogenized in a buffer consisting of 0.1M potassium phosphate and 5% sucrose (pH 7.4) at a 1:1 tissue wt/buffer volume ratio, using a motorized Teflon/glass homogenizer. MAO-A and B were determined by incubating 100 μl of tissue homogenate with 50 μl of a double-label substrate mixture to give final concentrations of [^3 H] serotonin, 0.4 mM (5 Ci/mol); and [^14 C] β-phenethylamine, 20 μM (3 Ci/mol). […]

MAO-A [2] = assay: Kinetic mechanism of MAO-A inhibition (single substrate varied); type: biochemical, rat or human
Protocol: For studies of the kinetic mechanism of inhibition, the above method was used, except that a single substrate (serotonin or tyramine) was varied over a 10-fold concentration range that included the Km concentration. MAO activity was determined in the absence and presence of the compound under test at each substrate concentration in duplicate assays.

hypertensive activity = assay: Hypertensive activity with orally ingested tyramine in test animals; type: in vivo; conditions: oral antidepressant doses prior to orally ingested tyramine
MAO-A (liver) = assay: In vivo inhibition of liver MAO-A in orally pretreated rats; set-up: species or system rat; conditions: for Percentage Inhibition of MAO-A, Liver: 3 hr after oral dosing, extrapolated to zero tissue dilution; for Inhibition of liver MAO-A by the time of tyramine administration: single oral dose, equipotent doses for tyramine test
Protocol: as §1
(§3) Brains from pretreated male Sprague-Dawley rats (sacrificed 3 hours after oral dosing), were homogenized in a buffer consisting of 0.1M potassium phosphate and 5% sucrose (pH 7.4) at a 1:1 tissue wt/buffer volume ratio, using a motorized Teflon/glass homogenizer. MAO-A and B were determined by incubating 100 μl of tissue homogenate with 50 μl of a double-label substrate mixture to give final concentrations of [^3 H] serotonin, 0.4 mM (5 Ci/mol); and [^14 C] β-phenethylamine, 20 μM (3 Ci/mol). For blank assays 100 μl portions of homogenate were pre-incubated at 37° C. with pargyline (4 mM) before substrate addition. Incubations were at 37° C. for 30 sec. Assay mixtures were then acidified and products extracted as in the above in vitro method (White and Glassman). Liver tissue was homogenized in the above phosphate-sucrose buffer at a 1:5 tissue wt/buffer volume ratio. Portions (5, 10 and 50 μ l) of each homogenate were assayed with 50 μl of the above double-label substrate mixture in a total assay volume of 150 μl 0.067M potassium phosphate, pH 7.4. Blank assays included the same amounts of homogenate pre-incubated with 4 mM pargyline for 15 min at 37° C. After addition of substrates, mixtures were incubated at 37° C. for 20 sec, acidified, and products extracted as above. Percent inhibition for each liver homogenate was obtained by plotting % inhibition vs. reciprocal of tissue concentration and extrapolating back to zero dilution.

MAO-B (liver) = assay: In vivo inhibition of liver MAO-B in orally pretreated rats; set-up: species or system rat; conditions: 12.5-50 mg/kg p.o., 3 hr after oral dosing
Protocol: as §1, §2

MAO-A [3] = biological target: T1, MAO-A (Rattus norvegicus, UniProt P21396); assay: In vitro MAO-A inhibition, double-label assay, mitochondrial extracts of rat brain; type: biochemical
T1 construct: mitochondrial extracts of rat or human brain; from tissue; host or cells: rat brain, mitochondrial extract
T1 sequence (P21396 1-526): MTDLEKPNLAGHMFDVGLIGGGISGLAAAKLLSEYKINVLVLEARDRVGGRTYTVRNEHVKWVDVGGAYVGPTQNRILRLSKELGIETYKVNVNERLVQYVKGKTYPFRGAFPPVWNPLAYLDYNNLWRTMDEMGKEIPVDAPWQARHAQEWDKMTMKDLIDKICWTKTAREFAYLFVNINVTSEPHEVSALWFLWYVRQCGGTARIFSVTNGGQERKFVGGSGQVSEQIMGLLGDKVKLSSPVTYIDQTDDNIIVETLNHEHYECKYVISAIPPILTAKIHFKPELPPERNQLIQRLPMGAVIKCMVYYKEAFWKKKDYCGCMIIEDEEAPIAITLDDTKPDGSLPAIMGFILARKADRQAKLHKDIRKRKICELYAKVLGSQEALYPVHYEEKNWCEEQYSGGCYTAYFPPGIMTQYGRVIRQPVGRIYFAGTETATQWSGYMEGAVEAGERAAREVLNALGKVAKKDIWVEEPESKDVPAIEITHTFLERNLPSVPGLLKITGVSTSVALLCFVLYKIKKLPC
Protocol: (§4) MAO was assayed with [^3 H] serotonin (0.2 mM, 5 Ci/mol) and [^14 C] β-phenethylamine (10 μM, 3 Ci/mol) as substrates in a double-label assay (White and Glassman, J. Neurochem 29:987-97 1977).

MAO-A [4] = biological target: T2, MAO-A (Homo sapiens, UniProt P21397); assay: In vitro MAO-A inhibition, double-label assay, mitochondrial extracts of human brain; type: biochemical
T2 construct: mitochondrial extracts of rat or human brain; from tissue; host or cells: human brain, mitochondrial extract
T2 sequence (P21397 1-527): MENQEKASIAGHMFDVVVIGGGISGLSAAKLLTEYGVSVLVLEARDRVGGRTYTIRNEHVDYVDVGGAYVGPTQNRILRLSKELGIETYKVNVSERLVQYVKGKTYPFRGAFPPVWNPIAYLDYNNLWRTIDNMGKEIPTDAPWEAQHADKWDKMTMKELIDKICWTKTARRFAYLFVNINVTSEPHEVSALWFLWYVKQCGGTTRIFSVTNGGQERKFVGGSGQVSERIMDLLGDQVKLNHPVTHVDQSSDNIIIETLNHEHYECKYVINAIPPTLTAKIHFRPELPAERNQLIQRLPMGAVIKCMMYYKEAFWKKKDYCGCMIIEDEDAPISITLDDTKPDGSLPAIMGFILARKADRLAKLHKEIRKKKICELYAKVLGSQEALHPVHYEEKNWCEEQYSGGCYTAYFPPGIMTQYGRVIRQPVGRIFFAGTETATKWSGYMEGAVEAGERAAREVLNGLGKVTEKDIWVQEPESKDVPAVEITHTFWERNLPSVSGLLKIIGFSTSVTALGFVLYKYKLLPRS
Protocol: as §4

MAO-A (brain) = assay: In vivo inhibition of brain MAO-A in orally pretreated rats; set-up: species or system rat; conditions: for Percentage Inhibition of MAO-A, Brain: 3 hr after oral dosing; for Inhibition of brain MAO-A by the time of tyramine administration: single oral dose, equipotent doses for tyramine test
Protocol: as §1, §3

[5] = read-out: I50, inhibition of MAO-A

SMILES: CNC(=O)c1ccc2c(c1)S(=O)(=O)c1ccccc1C2=O [Compound I, 3-N-methylcarbamoylthioxanthen-9-one 10,10-dioxide]
- ED50 ([1]; Mus musculus, 1.5 h, oral, 90 minutes, tetrabenazine 35 mg/kg i.p.): 49 ± 10 mg/kg
- Prevention of tetrabenazine-induced sedation (in words) ([1]; oral, 90 minutes, tetrabenazine 35 mg/kg i.p.): dose-dependent prevention of tetrabenazine-induced sedation
- ED50 at 3 hr after treatment (in words) ([1]; oral, 3 hr after treatment, tetrabenazine 35 mg/kg i.p.): essentially the same as those found at 90 min
- ED50 at 5 hr after treatment (in words) ([1]; oral, 5 hr after treatment, tetrabenazine 35 mg/kg i.p.): essentially the same as those found at 90 min
- Reversibility of the in vivo inhibition (MAO): indicating reversibility of the in vivo inhibition
- Time of maximum inhibition (MAO): 3 to 7 h
- Inhibition at 24 hours after dosing (MAO; 24 hours after dosing): negligible
- Inhibition of MAO-B, brain (MAO-B (brain)): no significant inhibition of MAO-B in either tissue
- Ki (MAO-A [2]; serotonin as substrate, mitochondrial extracts of rat or human brain): 16 nM
- Mechanism of inhibition (MAO-A [2]; vs. the substrates, serotonin or tyramine): competitive
- Hypertensive activity (in words) (hypertensive activity): No significant hypertensive activity
- Percentage Inhibition of MAO-A, Liver (MAO-A (liver); 12.5 mg/kg p.o.): 79 ± 5%
- Percentage Inhibition of MAO-A, Liver (MAO-A (liver); 25 mg/kg p.o.): 94 ± 4%
- Percentage Inhibition of MAO-A, Liver (MAO-A (liver); 50 mg/kg p.o.): 92 ± 4%
- Inhibition of liver MAO-A by the time of tyramine administration (MAO-A (liver)): ≥ 90%
- Inhibition of MAO-B, liver (MAO-B (liver)): no significant inhibition of MAO-B in either tissue
- Inhibition of MAO-A (in words) (MAO-A [3]): potent selective inhibition of MAO-A
- IC50 (MAO-A [3]; [5]): 50 nM
- Inhibition of MAO-A (in words) (MAO-A [4]): potent selective inhibition of MAO-A
- IC50 (MAO-A [4]; [5]): 50 nM
- Percentage Inhibition of MAO-A, Brain (MAO-A (brain); 12.5 mg/kg p.o.): 37 ± 16%
- Percentage Inhibition of MAO-A, Brain (MAO-A (brain); 25 mg/kg p.o.): 49 ± 10%
- Percentage Inhibition of MAO-A, Brain (MAO-A (brain); 50 mg/kg p.o.): 78 ± 2%
- Inhibition of brain MAO-A by the time of tyramine administration (MAO-A (brain)): approximately 80%

SMILES: COc1cc2c(cc1OC)C1CC(=O)C(CC(C)C)CN1CC2 (stereo not drawn) [tetrabenazine, reference compound]
- Treated mice remaining motionless with marked blepharoptosis ([1]; tetrabenazine 35 mg/kg i.p. (challenge agent)): 90-100%

SMILES: NNCCc1ccccc1 [phenelzine, reference compound]
- Inhibition of liver MAO-A by the time of tyramine administration (MAO-A (liver)): ≥ 90%
- Inhibition of brain MAO-A by the time of tyramine administration (MAO-A (brain)): approximately 80%
